Data published in patent publication US9096591B2, “Tetracyclic compounds” (Medivation Technologies, Inc., priority 2007, dated 2015).

Experiments:
[1] = target: T1, human recombinant serotonin (5-Hydroxytryptamine) 5-HT6 receptor (Homo sapiens, UniProt P50406); test: Serotonin 5-HT6 radioligand binding ([3H]LSD); set-up: Inhibition of ligand binding, Ser. 5-HT6: concentration or dose not given beside the values; conditions: percent inhibition of specific binding
T1 construct: expressed in transfected cells; host or cells: human HeLa cells
From the text: Receptor proteins were filtered and washed, the filters were then counted to determine [3H]LSD specifically bound. […] Biochemical assay results are presented as the percent inhibition of specific binding in Table 6.

[2] = target: T2, human recombinant histamine H1 receptor (Homo sapiens, UniProt P35367); test: Histamine H1 radioligand binding ([3H]Pyrilamine); conditions: percent inhibition of specific binding; screened at 1 μM; read-out: Inhibition of ligand binding, Hist. H1
T2 construct: expressed in transfected cells; host or cells: CHO cells
How it was run: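 CHO-expressed receptor in modified Tris-HCl buffer (50 mM, pH 7.4; 2 mM MgCl2, 100 mM NaCl, 250 mM sucrose); bound ligand measured after filtration and washing.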

[3] = target: T3, human recombinant serotonin (5-Hydroxytryptamine) 5-HT2A receptor (Homo sapiens, UniProt P28223); test: Serotonin 5-HT2A radioligand binding ([3H]Ketanserin); conditions: percent inhibition of specific binding
T3 construct: expressed in transfected cells; host or cells: CHO-K1 cells
Method: Compounds of the invention were incubated with 0.5 nM [^3H]Ketanserin for 60 minutes at 25° C. Non-specific binding was estimated in the presence of 1 μM Mianserin. Receptor proteins were filtered and washed, the filters were then counted to determine [^3H]Ketanserin specifically bound. […] Biochemical assay results are presented as the percent inhibition of specific binding in Table 6.

[4] = target: T4, human recombinant adrenergic α1D receptor (Homo sapiens, UniProt P25100); test: Adrenergic α1D radioligand binding ([3H]Prozosin); set-up: Inhibition of ligand binding, Adren. alpha1D: concentration or dose not given beside the values; conditions: percent inhibition of specific binding
T4 construct: expressed in transfected cells; host or cells: HEK-293 cells
T4 sequence (P25100 1-572): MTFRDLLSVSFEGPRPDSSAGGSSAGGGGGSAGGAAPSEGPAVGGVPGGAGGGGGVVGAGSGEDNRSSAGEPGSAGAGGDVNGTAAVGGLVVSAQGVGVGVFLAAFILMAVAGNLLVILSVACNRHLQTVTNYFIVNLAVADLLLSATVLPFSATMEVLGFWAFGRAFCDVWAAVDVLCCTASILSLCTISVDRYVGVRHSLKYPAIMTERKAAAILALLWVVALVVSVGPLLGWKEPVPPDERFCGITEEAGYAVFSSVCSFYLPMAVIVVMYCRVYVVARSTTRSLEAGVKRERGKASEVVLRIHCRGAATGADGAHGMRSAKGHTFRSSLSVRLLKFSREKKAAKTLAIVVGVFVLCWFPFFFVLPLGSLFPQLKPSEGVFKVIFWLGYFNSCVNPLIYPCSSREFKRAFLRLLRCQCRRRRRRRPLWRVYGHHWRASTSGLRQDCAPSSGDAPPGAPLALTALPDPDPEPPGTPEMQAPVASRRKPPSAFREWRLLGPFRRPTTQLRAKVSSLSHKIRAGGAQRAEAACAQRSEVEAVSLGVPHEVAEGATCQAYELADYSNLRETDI
Method: Compounds of invention were incubated with 0.6 nM [^3H]Prozosin for 60 minutes at 25° C. Non-specific binding was estimated in the presence of 10 μM phentolamine. Receptor proteins were filtered and washed, the filters were then counted to determine [^3H]Prozosin specifically bound. […] Biochemical assay results are presented as the percent inhibition of specific binding in Table 6.

[5] = target: T5, human recombinant adrenergic α2A receptor (Homo sapiens, UniProt P08913); test: Adrenergic α2A radioligand binding ([3H]MK-912); set-up: Inhibition of ligand binding, Adren. alpha2A: concentration or dose not given beside the values; conditions: percent inhibition of specific binding
T5 construct: expressed in transfected cells; host or cells: insect Sf9 cells
T5 sequence (P08913 1-465): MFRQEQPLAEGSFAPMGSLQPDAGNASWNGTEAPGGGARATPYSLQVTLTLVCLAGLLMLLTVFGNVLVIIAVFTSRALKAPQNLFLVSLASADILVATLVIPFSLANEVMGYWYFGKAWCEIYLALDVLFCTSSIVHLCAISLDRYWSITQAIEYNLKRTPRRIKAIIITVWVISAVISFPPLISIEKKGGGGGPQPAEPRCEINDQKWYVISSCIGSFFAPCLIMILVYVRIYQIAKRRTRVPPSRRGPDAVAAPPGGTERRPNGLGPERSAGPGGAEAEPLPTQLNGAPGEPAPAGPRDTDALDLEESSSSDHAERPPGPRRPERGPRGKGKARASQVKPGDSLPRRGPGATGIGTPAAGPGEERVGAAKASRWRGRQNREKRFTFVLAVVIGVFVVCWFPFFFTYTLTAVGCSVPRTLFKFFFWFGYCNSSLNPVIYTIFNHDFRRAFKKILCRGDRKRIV
How it was run: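 Membranes from Sf9 cells expressing the receptor were incubated with 1 nM [3H]MK-912 for 60 minutes at 25° C in 50 mM Tris-HCl pH 7.4, 12.5 mM MgCl2, 2 mM EDTA. 10 μM WB-4101 defined non-specific binding. Values are percent inhibition of specific bound radioactivity after filtration.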

T2 sequence (P35367 whole entry): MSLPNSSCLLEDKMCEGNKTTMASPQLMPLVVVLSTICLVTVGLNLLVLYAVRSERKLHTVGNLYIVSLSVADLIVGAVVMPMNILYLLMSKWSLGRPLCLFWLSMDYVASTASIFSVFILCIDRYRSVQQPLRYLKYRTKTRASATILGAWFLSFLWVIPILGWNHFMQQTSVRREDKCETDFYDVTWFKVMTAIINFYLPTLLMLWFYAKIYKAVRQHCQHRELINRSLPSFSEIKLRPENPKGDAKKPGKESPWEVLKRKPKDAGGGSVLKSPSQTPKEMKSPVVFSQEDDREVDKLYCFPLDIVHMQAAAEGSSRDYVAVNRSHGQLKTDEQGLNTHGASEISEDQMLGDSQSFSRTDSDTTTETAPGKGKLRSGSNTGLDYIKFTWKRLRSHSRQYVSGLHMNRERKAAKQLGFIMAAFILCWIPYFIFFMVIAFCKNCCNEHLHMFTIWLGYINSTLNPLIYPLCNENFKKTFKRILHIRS
T1 sequence (P50406 whole entry): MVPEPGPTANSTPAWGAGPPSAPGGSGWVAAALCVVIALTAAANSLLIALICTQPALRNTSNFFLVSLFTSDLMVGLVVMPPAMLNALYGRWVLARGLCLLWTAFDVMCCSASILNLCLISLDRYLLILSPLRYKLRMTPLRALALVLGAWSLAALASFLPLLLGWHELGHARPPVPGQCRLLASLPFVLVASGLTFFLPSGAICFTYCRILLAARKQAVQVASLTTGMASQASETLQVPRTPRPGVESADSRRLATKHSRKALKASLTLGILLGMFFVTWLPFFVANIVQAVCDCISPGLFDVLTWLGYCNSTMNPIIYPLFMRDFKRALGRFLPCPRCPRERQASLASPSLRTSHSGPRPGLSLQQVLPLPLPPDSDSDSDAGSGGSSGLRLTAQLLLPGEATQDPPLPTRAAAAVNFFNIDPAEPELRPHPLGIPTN
T3 sequence (P28223 whole entry): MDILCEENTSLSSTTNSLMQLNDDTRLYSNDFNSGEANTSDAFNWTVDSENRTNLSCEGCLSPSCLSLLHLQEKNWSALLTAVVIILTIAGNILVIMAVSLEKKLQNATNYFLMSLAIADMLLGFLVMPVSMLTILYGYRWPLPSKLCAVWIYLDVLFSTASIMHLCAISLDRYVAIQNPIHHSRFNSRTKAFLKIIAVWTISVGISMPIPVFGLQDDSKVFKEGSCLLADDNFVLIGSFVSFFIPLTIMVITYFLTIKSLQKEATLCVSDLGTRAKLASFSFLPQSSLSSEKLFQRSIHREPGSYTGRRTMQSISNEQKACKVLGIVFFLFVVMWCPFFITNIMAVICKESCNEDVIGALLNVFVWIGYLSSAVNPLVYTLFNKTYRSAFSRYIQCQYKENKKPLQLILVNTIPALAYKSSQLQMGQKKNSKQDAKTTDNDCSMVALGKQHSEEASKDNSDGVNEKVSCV

SMILES	Inhibition of ligand binding, Ser. 5-HT6 [1] [%]	inhibition at 1 µM [2] [%]	Inhibition of ligand binding, Ser. 5-HT2A [3] [%]	Inhibition of ligand binding, Adren. alpha1D [4] [%]	Inhibition of ligand binding, Adren. alpha2A [5] [%]
CCc1ccc(CCn2c3c(c4cc(Cl)ccc42)CN(C)CC3)cn1 [Compound 371, 8-Chloro-5-[2-(6-ethyl-pyridin-3-yl)-ethyl]-2-methyl-2,3,4,5-tetrahydro-1H-pyrido[4,3-b]indole]	88	99	93	88	89
CC(C)c1ccc(CCn2c3c(c4cc(Cl)ccc42)CN(C)CC3)cn1 [Compound 372, 8-Chloro-5-[2-(6-isopropyl-pyridin-3-yl)-ethyl]-2-methyl-2,3,4,5-tetrahydro-1H-pyrido[4,3-b]indole]	88	101	96	94	100
Cc1cccc2c3c(n(CCc4ccc(C(F)(F)F)nc4)c12)CCN(C)C3 [Compound 380, 5-(2-(6-(trifluoromethyl)pyridin-3-yl)ethyl)-2,3,4,5-tetrahydro-2,6-dimethyl-1H-pyrido[4,3-b]indole]	39	68	88	73	78
Cc1ccc2c(c1)c1c(n2CCc2cncnc2)CCN(C)C1 [Compound 387, 2,8-Dimethyl-5-(2-pyrimidin-5-yl-ethyl)-2,3,4,5-tetrahydro-1H-pyrido[4,3-b]indole]	79	97	54	47	12
Cc1ccc(CCn2c3c(c4cc(C(C)C)ccc42)CN(C)CC3)cn1 [Compound 392, 8-Isopropyl-2-methyl-5-[2-(6-methyl-pyridin-3-yl)-ethyl]-2,3,4,5-tetrahydro-1H-pyrido[4,3-b]indole]	61	98	53	88	89
Cc1ccc2c(c1)c1c(n2CCC(=O)N2CCC(NC(=O)OC(C)(C)C)CC2)CCN(C)C1 [Compound 393, tert-butyl 1-(3-(1,2,3,4-tetrahydro-2,8-dimethylpyrido[4,3-b]indol-5-yl)propanoyl)piperidin-4-ylcarbamate]	3	28	19	16	98
Cc1ccc2c(c1)c1c(n2CCc2ccc(C)[n+]([O-])c2)CCN(C)C1 [Compound 394, 5-(2-(2,8-dimethyl-3,4-dihydro-1H-pyrido[4,3-b]indol-5(2H)-yl)ethyl)-2-methylpyridine 1-oxide]	5	30	3	9	15
Cc1ccc2c(c1)c1c(n2CC(=O)N2CCCCC2)CCN(C)C1 [Compound 395, 2-(1,2,3,4-tetrahydro-2,8-dimethylpyrido[4,3-b]indol-5-yl)-1-(piperidin-1-yl)ethanone]	0	20	16	9	4
Cc1ccc2c(c1)c1c(n2CC(=O)N2Cc3ccccc3C2)CCN(C)C1 [Compound 397, 2-(1,2,3,4-tetrahydro-2,8-dimethylpyrido[4,3-b]indol-5-yl)-1-(isoindolin-2-yl)ethanone]	−9	77	50	19	16
Cc1ccc2c(c1)c1c(n2CC(=O)N2CCc3ccccc3C2)CCN(C)C1 [Compound 398, 2-(1,2,3,4-tetrahydro-2,8-dimethylpyrido[4,3-b]indol-5-yl)-1-(3,4-dihydroisoquinolin-2(1H)-yl)ethanone]	15	76	85	17	23
Cc1ccc2c(c1)c1c(n2CC(=O)N2CCSCC2)CCN(C)C1 [Compound 399, 2-(1,2,3,4-tetrahydro-2,8-dimethylpyrido[4,3-b]indol-5-yl)-1-thiomorpholinoethanone]	−5	42	8	6	16
Cc1ccc2c(c1)c1c(n2CC(=O)N2CCCC(C)C2)CCN(C)C1 (centres unmarked) [Compound 401, 2-(1,2,3,4-tetrahydro-2,8-dimethylpyrido[4,3-b]indol-5-yl)-1-(3-methylpiperidin-1-yl)ethanone]	1	36	17	1	3
Cc1ccc(CCn2c3c(c4cc(Cl)ccc42)CN(c2cccc(C(F)(F)F)c2)CC3)cn1 [Compound 403, 8-Chloro-5-[2-(6-methyl-pyridin-3-yl)-ethyl]-2-(3-trifluoromethyl-phenyl)-2,3,4,5-tetrahydro-1H-pyrido[4,3-b]indole]	0	54	32	19	30
